Data published in patent US20030232851A1, “Viral treatment” (The Procter & Gamble Company, priority 1999, published 2003).
Values after ≈ are worked out from the molar mass of the structure shown.

Legend:
[1] = Kaposi's Sarcoma test: toxicity values; type: cell-based; details: human, TPA-induced BCBL-1 cells (HHV8 cell line); read-out: TC50 (the source's name)
Method: The DNA copy number and the toxicity value were measured and compared with Cidofovir.

[2] = tested on: U937RF, a protease resistant strain; assay: Long term in vitro study, U937RF, reverse transcriptase; type: cell-based, HIV
Method: A microtiter-based reveres transcriptase (RT) reaction is utilized (Buckheit et al (1991) AIDS Research and Human Retroviruses 7:295-302). Tritiated thymidine triphosphate (NEN)(TTP) is resuspended in distilled water at 5 Ci/ml. Poly rA and oligo dT are prepared as a stock solution which is kept at −20° C. The RT reaction buffer is prepared fresh on a daily basis and consists of 125 μl 1M EGTA, 125 μl water, 125 μl Triton X-100, 50 μl Tris (pH 7.4), 50 μl 1 MDDT, and 40 μl 1M MgCl2. These three solutions are mixed together in a ratio of 1 part TTP, 2.5 parts poly rA:oligo dT, 2.5 parts reaction buffer and 4 parts distilled water. Ten microliters of this reaction mixture is placed in a round bottom microtiter place and 15 μl of virus containing supernatant is added and mixed. The plate is incubated at 37° C. for 60 minutes. Following reaction, the reaction volume is spotted onto filter mats, washed 6 times for 5 minutes each in a 5% sodium phosphate buffer, 2 times for 1 minute each in distilled water, 2 times for 1 minute each in 70% ethanol, and then dried. The dried filter mat is placed in a plastic sample bag, Betaplate scintillation fluid is added and the bag is heat sealed. Incorporated radioactivity is quantified utilizing a Wallac Microbeta scintillation counter.
Acute infection of most established human cell lines with HIV-1 results in the eventual establishment of a constitutive virus-producing chronically infected cell line. The cells can be passaged for long periods of time in culture without loss of virus production. These cells may be utilized to evaluate the effects of anti-HIV compounds on syncytium formation or to evaluate the effects of anti-HIV compounds on levels of virus production from these cells. […] Each of the cells contains an integrated HIV genome or provirus. Chronically infected CEM, H9 and U937 cell lines have been prepared and cultured by Southern Research Institute, Frederick Md. and are available from them.
CEM-SS cells chronically infected with HIV isolate, for example SKI (CEM-SKI) are cultured in RPMI1640 tissue culture medium supplemented with 10% fetal bovine serum and antibiotics. […] CEM-SKI or other infected cells with no added drug are used as the control cells. Cells are allowed to grow to a density of approximately 1×10^6 cells/ml and are then passaged at a 1:10 dilution. […] The drug concentration in the flask is then increased two-fold and the cells maintained as above.
The cell populations contain integrated copies of the HIV genome and constitutively produce HIV at relatively high levels or are latently infected and only produce virus after stimulation with phorbol esters, tumor necrosis factor or IL6 (U1 and ACH2). Reductions in virus products were observed when quantifying supernatant reverse transcriptase activity,
A long term in vitro study of 2-(2-thienyl)-imidazolo [4,5-b]pyridine against U937RF, a protease resistant strain, was conducted at three different levels. The results with U937RF cells were reported at weekly intervals.

Cryptococcus neoformans = assay: Anti-fungal activity (NCCLS M-27A based), Cryptococcus neoformans; type: cell-based
Method: It was active against cryptococcus neoformans and curvularai lunata. The cidal activity for the C. neoformans is high enough that it is clear […] against this yeast. This test was conducted using a method based upon NCCLS reference method M-27A published in 1997. Solvent, medium and growth controls were set-up with the tests. Once these were read to validate the test performance, the QC fungi were read to insure they had expected results. These steps validated the test system. DMSO was used as a drug-chemical solvent. […] The 90% cut-off is necessary for azoles, which are static and not cidal. The FMC or cidal level was determined by sub-culturing a sample from each tube showing no growth.

c1csc(-c2nc3cccnc3[nH]2)c1 [2-(2-thienyl)-imidazolo [4,5-b]pyridine]
CC50 [1]: 32.6 µM
reverse transcriptase data ([2]; 7 μg/ml, day 4): 9711
reverse transcriptase data ([2]; 7 μg/ml, day 11): 9974
reverse transcriptase data ([2]; 7 μg/ml, day 18): 7462
reverse transcriptase data ([2]; 7 μg/ml, day 25): 6952
reverse transcriptase data ([2]; 7 μg/ml, day 32): 9161
reverse transcriptase data ([2]; 7 μg/ml, day 39): 11155
reverse transcriptase data ([2]; 7 μg/ml, day 46): 5178
reverse transcriptase data ([2]; 7 μg/ml, day 53): 5878
reverse transcriptase data ([2]; 7 μg/ml, day 60): 7586
reverse transcriptase data ([2]; 7 μg/ml, day 67): 6678
reverse transcriptase data ([2]; 7 μg/ml, day 71): 7299
reverse transcriptase data ([2]; 7 μg/ml, day 74): 5927
reverse transcriptase data ([2]; 7 μg/ml, day 88): 6996
reverse transcriptase data ([2]; 7 μg/ml, day 95): 5624
reverse transcriptase data ([2]; 7 μg/ml, day 102): 6002
reverse transcriptase data ([2]; 7 μg/ml, day 109): 13890
reverse transcriptase data ([2]; 15 μg/ml, day 4): 6397
reverse transcriptase data ([2]; 15 μg/ml, day 11): 8051
reverse transcriptase data ([2]; 15 μg/ml, day 18): 7932
reverse transcriptase data ([2]; 15 μg/ml, day 25): 5229
reverse transcriptase data ([2]; 15 μg/ml, day 32): 7277
reverse transcriptase data ([2]; 15 μg/ml, day 39): 12487
reverse transcriptase data ([2]; 15 μg/ml, day 46): 4703
reverse transcriptase data ([2]; 15 μg/ml, day 53): 4960
reverse transcriptase data ([2]; 15 μg/ml, day 60): 7952
reverse transcriptase data ([2]; 15 μg/ml, day 67): 6417
reverse transcriptase data ([2]; 15 μg/ml, day 71): 7016
reverse transcriptase data ([2]; 15 μg/ml, day 74): 5903
reverse transcriptase data ([2]; 15 μg/ml, day 88): 5887
reverse transcriptase data ([2]; 15 μg/ml, day 95): 4602
reverse transcriptase data ([2]; 15 μg/ml, day 102): 5229
reverse transcriptase data ([2]; 15 μg/ml, day 109): 5718
reverse transcriptase data ([2]; 30 μg/ml, day 4): 4841
reverse transcriptase data ([2]; 30 μg/ml, day 11): 5389
reverse transcriptase data ([2]; 30 μg/ml, day 18): 6988
reverse transcriptase data ([2]; 30 μg/ml, day 25): 6061
reverse transcriptase data ([2]; 30 μg/ml, day 32): 7572
reverse transcriptase data ([2]; 30 μg/ml, day 39): 8558
reverse transcriptase data ([2]; 30 μg/ml, day 46): 3065
reverse transcriptase data ([2]; 30 μg/ml, day 53): 3643
reverse transcriptase data ([2]; 30 μg/ml, day 60): 3445
reverse transcriptase data ([2]; 30 μg/ml, day 67): 4368
reverse transcriptase data ([2]; 30 μg/ml, day 71): 1498
reverse transcriptase data ([2]; 30 μg/ml, day 74): 3639
reverse transcriptase data ([2]; 30 μg/ml, day 88): 2697
reverse transcriptase data ([2]; 30 μg/ml, day 95): 2442
reverse transcriptase data ([2]; 30 μg/ml, day 102): 2815
reverse transcriptase data ([2]; 30 μg/ml, day 109): 2095
reverse transcriptase data on continuation (in words) ([2]; run through 242 days): data remained consistent
MFC (Cryptococcus neoformans; Cryptococcus neoformans, cidal level): > 32 µg/mL
MIC (Cryptococcus neoformans; Cryptococcus neoformans, growth inhibited or reduced at least 90%): 0.03 µg/mL (≈ 0.149 µM)
activity against Cryptococcus neoformans (in words) (Cryptococcus neoformans; in vitro): active
